Results reported in article PMC3589659 (Investigational New Drugs, 2012).
Where two headings read alike, the source gives them in different places. Marks after values point to notes of the source that are not given here.

Columns and labels:
[1] = system: Ki-67 in epidermal keratinocytes; conditions: doses of ≥ 55 mg/day, Day 21 versus pretreatment
[2] = system: pAkt in epidermal keratinocytes; assay: Pharmacodynamics: immunohistochemistry on skin punch biopsies, pAkt; conditions: pretreatment versus on-therapy (Day 21)
[3] = Plasma pharmacokinetics, non-compartmental analysis; conditions: 65 mg once daily, Day 21, individual values of 2 patients
[4] = human, in vivo
[5] = system: patients with advanced solid tumors; assay: Safety and tolerability: adverse events graded by CTCAE version 3.0; format: in vivo, human
advanced solid tumors = assay: Antitumor activity, objective tumor response by RECIST 1.0
[6] = system: patients with advanced solid tumors; assay: Phase I dose escalation: dose-limiting toxicities and maximum tolerated dose; conditions: oral once daily, 3-week-on/1-week-off schedule
[7] = system: pMAPK in epidermal keratinocytes; assay: Pharmacodynamics: immunohistochemistry on skin punch biopsies, pMAPK; conditions: pretreatment versus on-therapy (Day 21)
clinical = conditions: human, in vivo; for AUC(0-t): AUC0–24,ss; for CL/F: CL/Fss; for Cmax: Cmax,ss; for Vd/F: Vz/Fss
[8] = system: patients with advanced solid tumors; conditions: human, in vivo
[9] = system: p27^KIP1 in epidermal keratinocytes; assay: Pharmacodynamics: immunohistochemistry on skin punch biopsies, p27KIP1; conditions: doses of ≥ 55 mg/day, Day 21

## CN(C)C/C=C/C(=O)Nc1cc2c(Nc3ccc(F)c(Cl)c3)ncnc2cc1O[C@H]1CCOC1 [afatinib]
[1]
  reduction of the number of Ki-67-positive cells in skin biopsies: 31%
[2]
  change in level of pAkt in paired skin biopsies: no significant difference
[3]
  t½,ss: 25.8 h
[4]
  time to reach steady-state: ≤ 8 days
[4]; 10 mg
  AUC0–24,ss,norm: 6.37 (99.8) [ng·h/mL]/mg
  Cmax,ss,norm: 0.399 (83.7) [ng/mL]/mg
[4]; 20 mg
  AUC0–24,ss,norm: 22.8 (61.8) [ng·h/mL]/mg
  Cmax,ss,norm: 1.57 (94.1) [ng/mL]/mg
[4]; 40 mg
  AUC0–24,ss,norm: 22.7 (69.1) [ng·h/mL]/mg
  Cmax,ss,norm: 1.47 (83.7) [ng/mL]/mg
[4]; 55 mg
  AUC0–24,ss,norm: 24.7 (68.1)^b [ng·h/mL]/mg
  Cmax,ss,norm: 1.65 (67.8)^b [ng/mL]/mg
[5]; 10 mg
  drug-related diarrhea: no drug-related diarrhea was observed
[5]; 10 mg dose cohort
  treatment-related Grade ≥2 AEs: No treatment-related Grade ≥2 AEs were observed
[5]; 20 mg
  drug-related diarrhea: no drug-related diarrhea was observed
[5]; 40 mg
  patients who developed diarrhea: 50%
[5]; 40 mg/day
  Discontinued due to other toxicity, n (%): 1 (12.5) n (%)
[5]; 55 mg
  patients who developed diarrhea: 90%
[5]; 55 mg/day
  Discontinued due to other toxicity, n (%): 4 (20.0) n (%)
[5]; 65 mg/day
  Discontinued due to other toxicity, n (%): 2 (33.3) n (%)
  patients who developed diarrhea: 100%
[5]; Total, all doses
  Discontinued due to other toxicity, n (%): 7 (16.3) n (%)
[5]; all doses
  Grade 4 or 5 AEs: No Grade 4 or 5 AEs were observed
  Grade ≥2 reductions in LVEF: No patients had Grade ≥2 reductions in LVEF
  cases in which diarrhea started within 1–7 days after treatment initiation: 80%
  patients who experienced a serious adverse event (SAE): 34.9%
  patients with drug-related AEs within their first 28-day cycle: 38 patients
  skin events considered to be related to afatinib: 91%
[5]; all doses, entire trial
  drug-related anorexia: 16.3%
  drug-related diarrhea: 65.1%
  drug-related epistaxis: 23.3%
  drug-related fatigue: 20.9%
  drug-related mucosal inflammation: 23.3%
  drug-related nausea: 41.9%
  drug-related rash: 58.1%
  drug-related stomatitis: 25.6%
  drug-related vomiting: 34.9%
[5]; majority of cases
  start of skin events after treatment initiation: 7 to 28 days
[5]; majority of cases (80 %)
  start of diarrhea after afatinib treatment initiation: 1 to 7 days
[5]; three deaths occurred
  deaths during afatinib administration considered to be related to afatinib: None
Advanced solid tumors; 10 mg/day
  Discontinued due to disease progression, n (%): 3 (100.0) n (%)
Advanced solid tumors; 20 mg/day
  Discontinued due to disease progression, n (%): 2 (33.3) n (%)
Advanced solid tumors; 40 mg/day
  Discontinued due to disease progression, n (%): 3 (37.5) n (%)
Advanced solid tumors; 55 mg/day
  Discontinued due to disease progression, n (%): 8 (40.0) n (%)
Advanced solid tumors; 65 mg/day
  Discontinued due to disease progression, n (%): 1 (16.7) n (%)
Advanced solid tumors; RECIST 1.0, all doses
  confirmed objective responses: no confirmed objective responses
Advanced solid tumors; Total, all doses
  Discontinued due to disease progression, n (%): 17 (39.5) n (%)
Advanced solid tumors; one patient with CRC
  decrease in tumor size: 14%
Advanced solid tumors; one patient with NSCLC
  decrease in tumor size: 27%
Advanced solid tumors; one patient with parotid carcinoma, Cycle 4, maintained until Cycle 6
  tumor shrinkage: 13%
Advanced solid tumors; received at least 5 cycles of treatment
  patients with stable disease for at least 16 weeks: 8 patients
[6]
  maximum tolerated dose (MTD): 55 mg/day
[7]
  change in level of pMAPK in normal skin punch biopsies: No significant changes
clinical; 10 mg
  Tmax: 4 h
  half-life: 35.7 h
  AUC(0-t): 63.7 ng·h/mL
  CL/F: 2620 mL/min
  Cmax: 3.99 ng/mL
  Vd/F: 8080 L
clinical; 20 mg
  half-life: 43.2 h
  AUC(0-t): 455 ng·h/mL
  CL/F: 732 mL/min
  Cmax: 31.3 ng/mL
  Vd/F: 2740 L
clinical; 40 mg
  half-life: 42.8 h
  CL/F: 734 mL/min
  Cmax: 58.9 ng/mL
  Vd/F: 2720 L
clinical; 55 mg
  half-life: 35.1 h
  AUC(0-t): 1360 ng·h/mL
  CL/F: 653 mL/min
  Cmax: 90.8 ng/mL
  Vd/F: 2040 L
clinical; 65 mg
  Tmax: 9 h
[8]
  Discontinued due to DLT, n (%): 4 (9.3) n (%)
[8]; 28 day
  DLTs occurring during the first treatment cycle, n (%): 11 (25.6) n (%)
  recommended dose for further studies using this schedule: 40 mg/day
[9]
  increase in the total number of p27^KIP1-positive epidermal keratinocytes versus pretreatment: about 16%
